Laboratory results reported in patent US11680060B2, “Bicycloheptane pyrrolidine orexin receptor agonists” (Merck Sharp & Dohme LLC, priority 2020, dated 2023).

Molecular target: human OX2R (Homo sapiens (Human), UniProt O43614)
Assay: IPOne (IP-1) assay in CHO cells expressing human OX2R
Assay type: cell-based
Details: for Emax: CHO, percentage of mean max effect of a reference compound at 1 uM (100% activity by comparison to Orexin A), human OX2R, read-out: Emax (%); for IC50: CHO cells expressing human OX2R, IP-One detection, 2 hours incubation, EC50 = inflection point of four parameter logistic fit, read-out: hOX2R_IP_IC50
Outline: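 CHO cells stably expressing human OX2R were stimulated with compound (10-point ½-log dilutions) for 2 h at 37 °C. IP-1 accumulation was read by HTRF (IP-One, 665/620 nm). EC50 from a four-parameter fit; % effect relative to 1 μM reference agonist control.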

Chain of human OX2R (O43614 whole entry): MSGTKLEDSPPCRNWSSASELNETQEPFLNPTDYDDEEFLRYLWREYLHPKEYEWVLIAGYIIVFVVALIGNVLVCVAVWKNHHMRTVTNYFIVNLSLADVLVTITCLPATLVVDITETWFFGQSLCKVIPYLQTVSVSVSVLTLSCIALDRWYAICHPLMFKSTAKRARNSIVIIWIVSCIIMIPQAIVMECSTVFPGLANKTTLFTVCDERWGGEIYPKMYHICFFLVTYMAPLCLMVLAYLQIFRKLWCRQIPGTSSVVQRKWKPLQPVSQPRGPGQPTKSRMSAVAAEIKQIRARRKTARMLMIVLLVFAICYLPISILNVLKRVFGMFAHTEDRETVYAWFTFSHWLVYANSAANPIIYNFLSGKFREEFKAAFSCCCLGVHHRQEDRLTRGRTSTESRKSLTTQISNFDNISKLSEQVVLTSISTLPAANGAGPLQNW

Compound	Emax	IC50
CCS(=O)(=O)N[C@H]1[C@H]2CCC[C@H]2N(C(=O)OC)[C@H]1COC1CCC2(c3ncc(F)cn3)CC2C1 (stereo partly drawn) [Example 129, methyl (2R,3S,3aS,6aR)-3-(ethylsulfonamido)-2-(((6-(5-fluoropyrimidin-2-yl)bicyclo[4.1.0]heptan-3-yl)oxy)methyl)hexahydrocyclopenta[b]pyrrole-1(2H)-carboxylate]	101%	
COC(=O)N1[C@@H]2CCC[C@@H]2[C@H](NS(=O)(=O)CF)[C@@H]1COC1CCC2(c3ncc(F)cn3)CC2C1 (stereo partly drawn) [Example 130, methyl (2R,3S,3aS,6aR)-3-((fluoromethyl)sulfonamido)-2-(((6-(5-fluoropyrimidin-2-yl)bicyclo[4.1.0]heptan-3-yl)oxy)methyl)hexahydrocyclopenta[b]pyrrole-1(2H)-carboxylate]	101%	
COC[C@@H]1C[C@H](NS(C)(=O)=O)[C@H](CO[C@H]2CC[C@@]3(c4ncc(F)cn4)C[C@H]3C2)N1C(=O)OC [Example 132, methyl (2R,3S,5S)-2-((((1S,3S,6R)-6-(5-fluoropyrimidin-2-yl)bicyclo[4.1.0]heptan-3-yl)oxy)methyl)-5-(methoxymethyl)-3-(methylsulfonamido)pyrrolidine-1-carboxylate]	103%	
COC(=O)N1[C@H](C)C[C@H](NS(C)(=O)=O)[C@@H]1COC1CCC2(c3ncc(F)cn3)CC2C1 (stereo partly drawn) [Example 135, methyl (2R,3S,5R)-2-(((6-(5-fluoropyrimidin-2-yl)bicyclo[4.1.0]heptan-3-yl)oxy)methyl)-5-methyl-3-(methylsulfonamido)pyrrolidine-1-carboxylate]	99.5%	
COC(=O)N1[C@H](C)C[C@H](NS(C)(=O)=O)[C@@H]1CO[C@@H]1CC[C@]2(c3ncc(F)cn3)C[C@@H]2C1 [Example 136, methyl (2R,3S,5R)-2-((((1R,3R,6S)-6-(5-fluoropyrimidin-2-yl)bicyclo[4.1.0]heptan-3-yl)oxy)methyl)-5-methyl-3-(methylsulfonamido)pyrrolidine-1-carboxylate]	101%	
COC(=O)N1[C@H](C)C[C@H](NS(C)(=O)=O)[C@@H]1CO[C@H]1CC[C@@]2(c3ncc(F)cn3)C[C@H]2C1 [Example 137, methyl (2R,3S,5R)-2-((((1S,3S,6R)-6-(5-fluoropyrimidin-2-yl)bicyclo[4.1.0]heptan-3-yl)oxy)methyl)-5-methyl-3-(methylsulfonamido)pyrrolidine-1-carboxylate]	101%	
COC(=O)N1[C@H](C)C[C@H](NS(C)(=O)=O)[C@@H]1COC1CCC2(c3ncc(Cl)cn3)CC2C1 (stereo partly drawn) [Example 140, methyl (2R,3S,5R)-2-(((6-(5-chloropyrimidin-2-yl)bicyclo[4.1.0]heptan-3-yl)oxy)methyl)-5-methyl-3-(methylsulfonamido)pyrrolidine-1-carboxylate]	103%	
COC(=O)N1[C@H](C)C[C@H](NS(C)(=O)=O)[C@@H]1CO[C@@H]1CC[C@]2(c3ncc(Cl)cn3)C[C@@H]2C1 [Example 141, methyl (2R,3S,5R)-2-((((1R,3R,6S)-6-(5-chloropyrimidin-2-yl)bicyclo[4.1.0]heptan-3-yl)oxy)methyl)-5-methyl-3-(methylsulfonamido)pyrrolidine-1-carboxylate]	98.7%	
COC(=O)N1[C@H](C)C[C@H](NS(C)(=O)=O)[C@@H]1CO[C@H]1CC[C@@]2(c3ncc(Cl)cn3)C[C@H]2C1 [Example 142, methyl (2R,3S,5R)-2-((((1S,3S,6R)-6-(5-chloropyrimidin-2-yl)bicyclo[4.1.0]heptan-3-yl)oxy)methyl)-5-methyl-3-(methylsulfonamido)pyrrolidine-1-carboxylate]	102%	
COC(=O)N1[C@H](C)C[C@H](NS(C)(=O)=O)[C@@H]1COC1CCC2(c3nccs3)CC2C1 (stereo partly drawn) [Example 149, methyl (2R,3S,5R)-5-methyl-3-(methylsulfonamido)-2-(((6-(thiazol-2-yl)bicyclo[4.1.0]heptan-3-yl)oxy)methyl)pyrrolidine-1-carboxylate]	96.8%	
CC(C)OC(=O)N1[C@H](C)C[C@H](NS(C)(=O)=O)[C@@H]1COC1CCC2(c3ncc(Cl)cn3)CC2C1 (stereo partly drawn) [Example 154, isopropyl (2R,3S,5R)-2-(((6-(5-chloropyrimidin-2-yl)bicyclo[4.1.0]heptan-3-yl)oxy)methyl)-5-methyl-3-(methylsulfonamido)pyrrolidine-1-carboxylate]	101%	
COC(=O)N1[C@H](C)C[C@H](NS(C)(=O)=O)[C@@H]1COC1CCC2(c3ncc(C)cn3)CC2C1 (stereo partly drawn) [Example 159, methyl (2R,3S,5R)-5-methyl-2-(((6-(5-methylpyrimidin-2-yl)bicyclo[4.1.0]heptan-3-yl)oxy)methyl)-3-(methylsulfonamido)pyrrolidine-1-carboxylate]	98.1%	
CC(C)OC(=O)N1[C@H](C)C[C@H](NS(=O)(=O)N(C)C)[C@@H]1COC1CCC2(c3ncc(F)cn3)CC2C1 (stereo partly drawn) [Example 164, isopropyl (2R,3S,5R)-3-((N,N-dimethylsulfamoyl)amino)-2-(((6-(5-fluoropyrimidin-2-yl)bicyclo[4.1.0]heptan-3-yl)oxy)methyl)-5-methylpyrrolidine-1-carboxylate]	100%	
COC(=O)N1[C@H](C)C[C@H](NS(=O)(=O)N(C)C)[C@@H]1CO[C@H]1CC[C@@]2(c3ncc(F)cn3)C[C@H]2C1 [Example 166, methyl (2R,3S,5R)-3-((N,N-dimethylsulfamoyl)amino)-2-((((1S,3S,6R)-6-(5-fluoropyrimidin-2-yl)bicyclo[4.1.0]heptan-3-yl)oxy)methyl)-5-methylpyrrolidine-1-carboxylate]	99.4%	0.41 nM
COC(=O)N1[C@H](C)C[C@H](NS(=O)(=O)N(C)C)[C@@H]1COC1CCC2(c3ncc(F)cn3)CC2C1 (stereo partly drawn) [Example 169, methyl (2R,3S,5R)-3-((N,N-dimethylsulfamoyl)amino)-2-(((6-(5-fluoropyrimidin-2-yl)bicyclo[4.1.0]heptan-3-yl)oxy)methyl)-5-methylpyrrolidine-1-carboxylate]		1.5 nM
CC(C)OC(=O)N1[C@H](C)C[C@H](NS(=O)(=O)N(C)C)[C@@H]1CO[C@@H]1CC[C@]2(c3ncccn3)C[C@@H]2C1 [Example 170, isopropyl (2R,3S,5R)-3-((N,N-dimethylsulfamoyl)amino)-5-methyl-2-((((1R,3R,6S)-6-(pyrimidin-2-yl)bicyclo[4.1.0]heptan-3-yl)oxy)methyl)pyrrolidine-1-carboxylate]	99.5%	
CC(C)OC(=O)N1[C@H](C)C[C@H](NS(=O)(=O)N(C)C)[C@@H]1CO[C@H]1CC[C@@]2(c3ncccn3)C[C@H]2C1 [Example 171, isopropyl (2R,3S,5R)-3-((N,N-dimethylsulfamoyl)amino)-5-methyl-2-((((1S,3S,6R)-6-(pyrimidin-2-yl)bicyclo[4.1.0]heptan-3-yl)oxy)methyl)pyrrolidine-1-carboxylate]	101%	
CC(C)OC(=O)N1[C@H](C)C[C@H](NS(=O)(=O)N(C)C)[C@@H]1COC1CCC2(c3ncccn3)CC2C1 (stereo partly drawn) [Example 174, isopropyl (2R,3S,5R)-3-((N,N-dimethylsulfamoyl)amino)-5-methyl-2-(((6-(pyrimidin-2-yl)bicyclo[4.1.0]heptan-3-yl)oxy)methyl)pyrrolidine-1-carboxylate]	95.4%	
COC(=O)N1[C@@H]2CCC[C@@H]2[C@H](NS(C)(=O)=O)[C@@H]1COC1CCC2(c3ncccn3)CC2C1 (stereo partly drawn) [Example 175, methyl (2R,3S,3aS,6aR)-3-(methylsulfonamido)-2-(((6-(pyrimidin-2-yl)bicyclo[4.1.0]heptan-3-yl)oxy)methyl)hexahydrocyclopenta[b]pyrrole-1(2H)-carboxylate]	99.9%	
COC(=O)N1[C@H](C)C[C@H](NS(C)(=O)=O)[C@@H]1COC1CCC2(c3ncccn3)CC2C1 (stereo partly drawn) [Example 184, methyl (2R,3S,5R)-5-methyl-3-(methylsulfonamido)-2-(((6-(pyrimidin-2-yl)bicyclo[4.1.0]heptan-3-yl)oxy)methyl)pyrrolidine-1-carboxylate]	102%	
COC(=O)N1CC[C@H](NS(C)(=O)=O)[C@@H]1COC1CCC2(c3ncccn3)CC2C1 (stereo partly drawn) [Example 185, methyl (2R,3S)-3-(methylsulfonamido)-2-(((6-(pyrimidin-2-yl)bicyclo[4.1.0]heptan-3-yl)oxy)methyl)pyrrolidine-1-carboxylate]	94.6%	
COC(=O)N1[C@H](C)C[C@H](NS(C)(=O)=O)[C@@H]1CO[C@H]1CC[C@@]2(c3ncc(C#N)cn3)C[C@H]2C1 [Example 190, methyl (2R,3S,5R)-2-((((1S,3S,6R)-6-(5-cyanopyrimidin-2-yl)bicyclo[4.1.0]heptan-3-yl)oxy)methyl)-5-methyl-3-(methylsulfonamido)pyrrolidine-1-carboxylate]	103%	49.5 nM
